Legend:
Assay type in all cases: in vivo
[1] = test system: ECHCG (Echinocloa crus-galli); experiment: Greenhouse post-emergence test, test series 1, ECHCG; details: Echinochloa crus-galli, application rate 62.5 g/ha, scale 0 to 100 (100 = complete destruction, 0 = no damage)
Source text: (§1) The seeds of the test plants were sown separately for each species. For the pre-emergence treatment, the active ingredients, which had been suspended or emulsified in water, were applied directly after sowing by means of finely distributing nozzles. The containers were irrigated gently to promote germination and growth and subsequently covered with transparent plastic hoods until the plants had rooted. This cover caused uniform germination of the test plants, unless this had been impaired by the active ingredients. For the post-emergence treatment, the test plants were first grown to a height of 3 to 15 cm, depending on the plant habit, and only then treated with the active ingredients which had been suspended or emulsified in water. For this purpose, the test plants were either sown directly and grown in the same containers, or they were first grown separately as seedlings and transplanted into the test containers a few days prior to treatment. Depending on the species, the plants were kept at 10-25° C. or 20-25° C., respectively. The test period extended over 2 to 4 weeks. During this time, the plants were tended, and their response to the individual treatments was evaluated. Evaluation was carried out using a scale from 0 to 100. 100 means no emergence of the plants, or complete destruction of at least the aerial moieties, and 0 means no damage, or normal course of growth. A good herbicidal activity is given at values of at least 70 and a very good herbicidal activity is given at values of at least 85. Test Series 1: At an application rate of 62.5 g/ha the following compounds were tested in post-emergence tests against: ECHCG (Echinocloa crus-galli)

[2] = test system: CHEAL (Chenopodium album); experiment: Greenhouse post-emergence test, test series 1, CHEAL; details: application rate 62.5 g/ha, scale 0 to 100 (100 = complete destruction, 0 = no damage)
Source text: as §1, with “CHEAL (Chenopodium album)” for “ECHCG (Echinocloa crus-galli)”

AVEFA (Avena fatua) = experiment: Greenhouse post-emergence test, test series 1, AVEFA; details: application rate 62.5 g/ha, scale 0 to 100 (100 = complete destruction, 0 = no damage)
Source text: as §1, with “AVEFA (Avena fatua)” for “ECHCG (Echinocloa crus-galli)”

Measured: pest or weed control at 62.5 g/ha

Cc1c(NC(=O)N(C)CC(F)(F)F)c(Cl)cc(F)c1C(=O)Nc1nnnn1C [Example 12]
> 85%: all assays above

Cc1c(NC(=O)N(CC(F)(F)F)C2CC2)c(Br)cc(F)c1C(=O)Nc1nnnn1C [Example 6]
> 85%: all assays above

CCN(CC(F)(F)F)C(=O)Nc1c(Cl)cc(F)c(C(=O)Nc2nnnn2C)c1C [Example 18]
> 85%: all assays above

Cc1c(NC(=O)N(C)CC(F)(F)F)c(Br)cc(F)c1C(=O)Nc1nnnn1C [Example 1, 4-bromo-6-fluoro-2-methyl-N-(1-methyltetrazol-5-yl)-3-[[methyl(2,2,2-trifluoroethyl)carbamoyl]amino]benzamide]
> 85%: all assays above

CN(CC(F)(F)F)C(=O)Nc1c(Cl)cc(F)c(C(=O)Nc2nnnn2C)c1Cl [Example 9, 2,4-dichloro-6-fluoro-N-(1-methyltetrazol-5-yl)-3-[[methyl(2,2,2-trifluoroethyl)carbamoyl]amino]benzamide]
> 85%: all assays above

Cc1c(NC(=O)N(CC(F)(F)F)CC(F)(F)F)c(Cl)cc(F)c1C(=O)Nc1nnnn1C [Example 19]
> 85%: all assays above

Cc1c(NC(=O)N(CC(F)(F)F)CC(F)(F)F)c(Br)cc(F)c1C(=O)Nc1nnnn1C [Example 3]
> 85%: all assays above

Cc1c(NC(=O)N(CC(F)(F)F)C2CC2)c(Cl)cc(F)c1C(=O)Nc1nnnn1C [Example 21]
> 85%: all assays above

CC(C)N(CC(F)(F)F)C(=O)Nc1c(Cl)cc(F)c(C(=O)Nc2nnnn2C)c1Cl [Example 20]
> 85%: all assays above

Cc1c(NC(=O)N(CC(F)(F)F)C(C)C)c(Cl)cc(F)c1C(=O)Nc1nnnn1C [Example 13]
> 85%: all assays above

CCN(CC(F)(F)F)C(=O)Nc1c(Br)cc(F)c(C(=O)Nc2nnnn2C)c1C [Example 2, 4-bromo-6-fluoro-2-methyl-N-(1-methyltetrazol-5-yl)-3-[[ethyl(2,2,2-trifluoroethyl)carbamoyl]amino]benzamide]
> 85%: all assays above

Cn1nnnc1NC(=O)c1c(F)cc(Cl)c(NC(=O)N(CC(F)(F)F)C2CC2)c1Cl [Example 7]
> 85%: all assays above

Cn1nnnc1NC(=O)c1c(F)cc(C(F)(F)F)c(NC(=O)N(CC(F)(F)F)CC(F)(F)F)c1Cl [Example 22]
> 85%: all assays above

CN(CC(F)(F)F)C(=O)Nc1c(C(F)(F)F)cc(F)c(C(=O)Nc2nnnn2C)c1Cl [Example 10]
> 85%: all assays above

CCN(CC(F)(F)F)C(=O)Nc1c(Cl)cc(F)c(C(=O)Nc2nnnn2C)c1Cl [Example 8]
> 85%: all assays above

CC(C)N(CC(F)(F)F)C(=O)Nc1c(C(F)(F)F)cc(F)c(C(=O)Nc2nnnn2C)c1Cl [Example 14]
> 85%: all assays above
